Measurements published in paper PMC12477080, “Polychlorinated biphenyls (PCBs) interact with drug metabolism in vivo” (Archives of Toxicology, 2025).

Columns and labels:
[1] = Determination of PCB concentrations in plasma of HELPcB and control participants; assay type: in vivo; conditions: human plasma; for PCB plasma concentration, Geometric mean, HELPcB: HELPcB group; for PCB plasma concentration, Geometric mean, HELPcB / PCB plasma concentration, Geometric mean, Control: N 10; for PCB plasma concentration, Geometric mean, Control: control group
Experimental: The laboratory regularly participates in round robins for the determination of PCBs in plasma (www.g-equas.de).
Plasma concentrations of PCB congeners were quantified in blood samples from all participants using gas chromatography/mass spectrometry (GC–MS) (Fig. 2A and Supplementary Table 2). A total of 19 PCB congeners were measured in control (n = 10) and HELPcB (n = 10) participants, with PCBs detected in all individuals. […] In the control group, PCB plasma concentrations primarily reflected background environmental exposure, such as dietary intake, representing the general population’s burden.

CYP2D6 = experiment: CYP phenotyping cocktail clinical study: metoprolol/α-OH-metoprolol metabolic ratio and its association with PCB plasma levels; conditions: linear regression of MR AUC0–8 h α-OH-metoprolol/metoprolol (CYP2D6 activity) on PCB plasma concentration
Experimental: (§1) The participants were ascertained not to have any acute disease by medical history, physical examination, laboratory screening, including hematological and biochemical blood tests, and a 12-lead electrocardiogram. […] The demographic data of the subjects are summarized in Table 1 in the supplemental data. At the enrollment visit, 2 blood samples (9 ml each) were collected into ethylenediaminetetraacetic acid (EDTA)-containing tubes taken from each subject for analyzing the plasma concentrations of PCB congeners and for pharmacogenetic analysis.
(§2) Participants stayed fasted from the evening before until 3 h after drug administration. After that, a meal was provided. Water and juice were permitted but alcoholic and caffeinated beverages were not allowed from the evening before drug administration until the last blood sample was taken on the next day. Venous blood samples (9 ml each) were collected through an intravenous catheter immediately before and 0.25, 0.5, 0.75, 1, 1.5, 2, 2.5, 3, 4, 5, 6, 7, 8, and 24 h after drug administration. Blood was drawn into EDTA-coated tubes, centrifuged at 1500 g for 10 min at 4 °C, and plasma samples were subsequently stored at − 80 °C until further analysis. After completely voiding the bladder immediately before drug administration, the participants collected urine from 0 to 24 h after drug administration. After weighing the collected urine, a 10 ml aliquot of each fraction was taken.
(§3) Commercially sourced standards and internal standards were used for quantification (see Supplemental Materials). In brief, 20 µl of the plasma samples were protein-precipitated with 80 µl methanol containing all internal standards or were treated for 16 h at 37 °C with 2 µl β-glucuronidase (1,000,000 Units) for deconjugation before protein precipitation with 78 µl methanol containing internal standards. Samples were centrifuged for 20 min, at 4 °C and 17,000 × g, and 40 µl of the supernatants were diluted with 40 µl LC–MS grade water, centrifuged again for 5 min at 4 °C and 17,000 × g and 50 µl supernatant were transferred to LC–MS vials 5 µl of the samples were injected into the LC–MS system.
(§4) An Agilent 1290 Infinity II UHPLC coupled with a SCIEX QTRAP6500 + triple quadrupole mass spectrometer was used. Chromatographic separation was achieved on an Agilent Poroshell 120 EC-C18 (1.9 µm, 2.1 × 50 mm) column with A: 0.1% formic acid in water and B: methanol with a flow rate of 0.7 ml/min and a total run time of 8.5 min. Analytes were eluted using a gradient program. The following gradient steps represent gradual changes in % B over time: 5% B from 0 to 0.2 min, 30% B at 2 min, 34% B at 4.8 min, 95% B at 6.5 min, 95% B at 7.5 min and re-equilibrating to 5% B at 7.7 min and 5%B till 8.5 min. A representative chromatogram is shown in supplemental Fig. 2. The scheduled MRM mode was applied for analyte detection in both positive and negative ESI modes (Supplementary Table 4). Calibration curves were constructed with linear regression using weighted (1/x^2) models (detailed information in supplemental methods).
(§5) Partial areas under the plasma concentration–time curves from 0 to 3 h (AUC0–3 h), from 0 to 4 h (AUC0–4 h), and from 0 to 8 h (AUC0–8 h) were calculated based on measured concentrations by the linear trapezoidal rule without extrapolation. […] Metabolic ratios (MR) were calculated by dividing the partial AUC of the metabolite by the respective partial AUC of the parent drug. The MRs were used as biomarkers for the individual CYP activities of the study subjects.

CYP1A2 = experiment: CYP phenotyping cocktail clinical study: caffeine/paraxanthine metabolic ratio and its association with PCB plasma levels; conditions: linear regression of MR AUC0–8 h paraxanthine/caffeine (CYP1A2 activity) on PCB plasma concentration
Experimental: as §1, §2, §3
An Agilent 1290 Infinity II UHPLC coupled with a SCIEX QTRAP6500 + triple quadrupole mass spectrometer was used. […]
as §5, with “The MRs were used as biomarkers for the individual CYP activities of the study subjects.” left out

CYP2C9 = experiment: CYP phenotyping cocktail clinical study: torsemide/OH-torsemide metabolic ratio and its association with PCB plasma levels; conditions: linear regression of MR AUC0–8 h OH-torsemide/torsemide (CYP2C9 activity) on PCB plasma concentration
Experimental: as §1, §2, §3, §4, §5

[2] = Stability of substrates and metabolites in quality control samples (benchtop, autosampler, freeze-thaw); assay type: physicochemical; conditions: for Autosampler stability (24 h) Av. Accuracy (%): 10° C for 24 hours in the autosampler; for 3x freeze-thaw Av. Accuracy (%): after three freeze-thaw cycles; for Benchtop stability (19 h) Ac. Accuracy (%): room temperature for 19 hours
Text: The method was validated for intra- and interday accuracy and precision, stability, and matrix effects. […] Validation details are provided in Supplementary Tables 5–7 and supplemental Fig. 3. Glucuronidase/sulfatase digests were used to isolate CYP-specific metabolic activities, reducing interference from polymorphic UDP-glucuronosyltransferase (UGT) and sulfotransferase isoforms.
Supplemental table 6: Stability of the substrates and metabolites. Quality control samples were left at room temperature for 19 hours (benchtop stability) and at 10° C for 24 hours in the autosampler (autosampler stability) or were measured after three freeze-thaw cycles. Stability samples were measured against a freshly prepared set of calibrators and quality control samples.

SMILES	PCB plasma concentration, Geometric mean, HELPcB [1]	PCB plasma concentration, Geometric mean, Control [1]	further results
Clc1ccc(-c2cc(Cl)c(Cl)c(Cl)c2)cc1Cl [PCB 126]	BLQ	BLQ	–
Clc1ccc(Cl)c(-c2cc(Cl)c(Cl)cc2Cl)c1 [PCB 101]	0.005 ng/mL	BLQ	–
Clc1ccc(-c2cc(Cl)c(Cl)c(Cl)c2Cl)cc1 [PCB 114]	0.008 ng/mL	BLQ	–
Clc1cc(-c2cc(Cl)c(Cl)c(Cl)c2Cl)cc(Cl)c1Cl [PCB 189]	0.014 ng/mL	0.007 ng/mL	–
Clc1ccc(-c2ccc(Cl)cc2Cl)cc1 [PCB 28]	0.014 ng/mL	0.006 ng/mL	–
Clc1cc(-c2ccc(Cl)c(Cl)c2Cl)cc(Cl)c1Cl [PCB 157]	0.016 ng/mL	0.005 ng/mL	–
Clc1ccc(-c2ccc(Cl)c(Cl)c2)cc1Cl [PCB 77]	BLQ	BLQ	–
Clc1cc(Cl)c(-c2cc(Cl)c(Cl)c(Cl)c2Cl)cc1Cl [PCB 180]	0.808 ng/mL	0.372 ng/mL	–
Clc1ccc(Cl)c(-c2cc(Cl)ccc2Cl)c1 [PCB 52]	BLQ	BLQ	–
Clc1cc(Cl)c(-c2ccc(Cl)c(Cl)c2Cl)cc1Cl [PCB138]	0.672 ng/mL	0.173 ng/mL	t value (CYP2D6): 0,157; β (standardized regression coefficient) (CYP2D6): 0,037; PCB plasma concentration, Mean [±SD] HELPcB ([1]; HELPcB (occupationally exposed) group): 0.795 ± 0.593 ng/mL; PCB plasma concentration, Mean [±SD] all ([1]; all participants): 0.493 ± 0.516 ng/mL; PCB plasma concentration, Mean [±SD] control ([1]; control group (background exposure)): 0.191 ± 0.090 ng/mL; t value (CYP1A2): 0,221; β (standardized regression coefficient) (CYP1A2): 0,052; t value (CYP2C9): 0,341; β (standardized regression coefficient) (CYP2C9): 0,080; t value (CYP2C9; PM excl): 0,219; β (standardized regression coefficient) (CYP2C9; PM excl): 0,053
Clc1ccc(-c2cc(Cl)c(Cl)c(Cl)c2Cl)cc1Cl [PCB 156]	0.097 ng/mL	0.036 ng/mL	–
Clc1ccc(-c2cc(Cl)c(Cl)c(Cl)c2)c(Cl)c1 [PCB 123]	BLQ	BLQ	–
Clc1cc(Cl)c(-c2cc(Cl)c(Cl)cc2Cl)cc1Cl [PCB 153]	0.919 ng/mL	0.297 ng/mL	–
Clc1cc(-c2cc(Cl)c(Cl)c(Cl)c2)cc(Cl)c1Cl [PCB 169]	BLQ	BLQ	–
Clc1cc(Cl)c(-c2cc(Cl)c(Cl)c(Cl)c2)cc1Cl [PCB 167]	0.027 ng/mL	0.008 ng/mL	–
Clc1ccc(-c2ccc(Cl)c(Cl)c2Cl)cc1Cl [PCB 105]	0.014 ng/mL	BLQ	–
OCc1ncc2n1-c1ccc(Cl)cc1C(c1ccccc1F)=NC2 [1-OH-midazolam]	–	–	Autosampler stability (24 h) Av. Accuracy (%) ([2]; QC conc. 0,2 ng/ml): 102,59%; 3x freeze-thaw Av. Accuracy (%) ([2]; QC conc. 0,2 ng/ml): 108,6%; Benchtop stability (19 h) Ac. Accuracy (%) ([2]; QC conc. 0,2 ng/ml): 82,15%; Autosampler stability (24 h) Av. Accuracy (%) ([2]; QC conc. 0,6 ng/ml): 107,25%; 3x freeze-thaw Av. Accuracy (%) ([2]; QC conc. 0,6 ng/ml): 109,36%; Benchtop stability (19 h) Ac. Accuracy (%) ([2]; QC conc. 0,6 ng/ml): 102,06%; Autosampler stability (24 h) Av. Accuracy (%) ([2]; QC conc. 24 ng/ml): 113,74%; 3x freeze-thaw Av. Accuracy (%) ([2]; QC conc. 24 ng/ml): 106,45%; Benchtop stability (19 h) Ac. Accuracy (%) ([2]; QC conc. 24 ng/ml): 112,46%; Autosampler stability (24 h) Av. Accuracy (%) ([2]; QC conc. 60 ng/ml): 105,87%; 3x freeze-thaw Av. Accuracy (%) ([2]; QC conc. 60 ng/ml): 100,47%; Benchtop stability (19 h) Ac. Accuracy (%) ([2]; QC conc. 60 ng/ml): 105,11%
Clc1ccc(-c2cc(Cl)c(Cl)c(Cl)c2)cc1 [PCB 81]	BLQ	BLQ	–
